This assay in a line: Antiviral activity against SARS-CoV-2 infected in human Huh-7 cells overexpressing human ACE2 pre-infected with cells for 1 hr followed by compound addition and measured 23 hrs post infection by virus plaque assay. The format is functional, cell-based.

The term EC50 denotes the midpoint of the concentration-response curve. Low readings indicate greater potency, high ones weaker potency.

`CC(=O)/C=C/[C@H](C[C@@H]1CCNC1=O)NC(=O)[C@H](CC(C)(C)C)NC(=O)c1ccc(F)cc1` yielded an EC50 of 3.5 µM.
In the case of `CC(=O)/C=C/[C@H](C[C@@H]1CCNC1=O)NC(=O)[C@H](CC(C)C)NC(=O)c1ccc(F)cc1` it was 7.63 µM; in that of `CC(=O)/C=C/[C@H](C[C@@H]1CCNC1=O)NC(=O)[C@H](CC1CC1)NC(=O)c1ccccc1F`, 10.3 µM.

For the origin of these results see ChEMBL document CHEMBL6114939, “Identification of Dual Inhibitors Targeting Main Protease (Mpro) and Cathepsin L as Potential Anti-SARS-CoV-2 Agents” (ACS Med Chem Lett, 2024).
